Assay results from article PMC6669961, “Design and Optimization of Thioglycosyl–naphthalimides as Efficient Inhibitors Against Human O-GlcNAcase” (Frontiers in Chemistry, 2019).
Where two headings read alike, the source gives them in different places.

Assays:
hOGA = conditions: read-out: Ki against hOGA, cited from earlier work
HsHex = conditions: read-out: Ki against HsHex, cited from earlier work
HsHexB = conditions: read-out: Ki against HsHexB, cited from earlier work
[1] = molecular target: T1, human β-N-acetylhexosaminidase B (HsHexB) (Homo sapiens, UniProt P07686); experiment: Enzyme inhibitory activity test against HsHexB (4-MU-GlcNAc substrate, end-point fluorescence; Dixon plots for Ki); type: biochemical; conditions: pH 4.5
T1 construct: made in house; host or cells: Pichia pastoris
T1 sequence (P07686 122-556): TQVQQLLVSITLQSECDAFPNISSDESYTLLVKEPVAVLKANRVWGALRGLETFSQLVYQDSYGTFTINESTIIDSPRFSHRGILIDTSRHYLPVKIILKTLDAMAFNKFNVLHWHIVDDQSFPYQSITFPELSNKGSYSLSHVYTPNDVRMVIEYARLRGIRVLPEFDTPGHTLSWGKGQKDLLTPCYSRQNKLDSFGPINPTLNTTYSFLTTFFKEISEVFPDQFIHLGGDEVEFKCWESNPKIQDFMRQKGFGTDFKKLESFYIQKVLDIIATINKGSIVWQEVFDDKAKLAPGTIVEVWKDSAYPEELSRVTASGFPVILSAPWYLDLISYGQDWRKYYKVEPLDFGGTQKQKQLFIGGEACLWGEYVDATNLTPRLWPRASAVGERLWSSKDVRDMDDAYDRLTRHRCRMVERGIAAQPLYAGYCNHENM
Method: (§1) Human O-GlcNAcase (hOGA) was expressed in Escherichia coli BL21(DE3) and purified according to previous methods (Kong et al., [2016]). Human β-N-acetylhexosaminidase B (HsHexB) was overexpressed in Pichia pastoris and then purified as described previously (Shen et al., [2018a]).
(§2) All target compounds were evaluated for their inhibitory activities against hOGA and HsHexB in end-point experiments. 4-Methylumbelliferyl N-acetyl-β-D-glucosaminide (4-MU-GlcNAc) was used as substrate. In a final assay volume of 100 μL, inhibitor and substrate (40 μM) were mixed with Britton-Robinson buffer (hOGA, pH 6.5; HsHexB, pH 4.5) and enzyme; then, the assay components were incubated at 30°C for 30 min. Subsequently, the enzymatic reaction was terminated by the addition of 100 μL 0.5 M Na2CO3 solution. The fluorescence of the liberated 4-methylumbelliferone (Mu) was quantified at an excitation of 366 nm and emission of 445 nm on a Varioskan Flash microplate reader (Thermo Fisher Scientific, USA). To determine the inhibition constant (Ki), Dixon plots were performed by changing the concentration of the 4-MU-GlcNAc (40, 20, and 10 μM).

human O-GlcNAcase (hOGA) = molecular target: T2, human O-GlcNAcase (hOGA) (Homo sapiens, UniProt O60502); experiment: Enzyme inhibitory activity test against hOGA (4-MU-GlcNAc substrate, end-point fluorescence; Dixon plots for Ki); type: biochemical; conditions: pH 6.5
T2 construct: made in house; host or cells: Escherichia coli BL21(DE3)
T2 sequence (O60502 1-916): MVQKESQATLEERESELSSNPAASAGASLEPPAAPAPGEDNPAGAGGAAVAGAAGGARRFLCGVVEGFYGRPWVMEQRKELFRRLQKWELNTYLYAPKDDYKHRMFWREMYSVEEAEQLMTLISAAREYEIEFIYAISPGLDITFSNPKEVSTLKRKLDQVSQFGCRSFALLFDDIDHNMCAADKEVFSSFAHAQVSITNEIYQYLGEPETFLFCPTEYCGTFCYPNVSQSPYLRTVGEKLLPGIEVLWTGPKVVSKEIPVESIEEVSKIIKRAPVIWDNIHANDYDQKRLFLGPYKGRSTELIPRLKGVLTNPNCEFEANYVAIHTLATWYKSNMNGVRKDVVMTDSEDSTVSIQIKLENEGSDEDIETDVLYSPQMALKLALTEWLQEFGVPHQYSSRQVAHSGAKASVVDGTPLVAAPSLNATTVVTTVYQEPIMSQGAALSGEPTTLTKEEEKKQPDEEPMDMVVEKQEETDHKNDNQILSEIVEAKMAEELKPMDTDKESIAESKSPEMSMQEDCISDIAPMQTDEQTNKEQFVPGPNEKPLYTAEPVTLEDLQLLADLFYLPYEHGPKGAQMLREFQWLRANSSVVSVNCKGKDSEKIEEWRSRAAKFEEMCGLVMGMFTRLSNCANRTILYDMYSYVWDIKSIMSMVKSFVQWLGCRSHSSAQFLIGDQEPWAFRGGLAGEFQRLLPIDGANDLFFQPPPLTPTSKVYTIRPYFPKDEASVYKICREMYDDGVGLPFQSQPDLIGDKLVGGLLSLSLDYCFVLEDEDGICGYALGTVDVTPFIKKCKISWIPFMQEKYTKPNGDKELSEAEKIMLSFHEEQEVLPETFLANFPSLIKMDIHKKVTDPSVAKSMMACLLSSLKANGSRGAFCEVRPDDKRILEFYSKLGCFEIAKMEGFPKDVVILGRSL
Method: as §1, §2

[2] = GlcNAcstatin C, ref Dorfmueller et al., 2009
[3] = lead compounds 15b (1) and 5c (2) of previous research, ref Chen et al., 2018, Shen et al., 2018a
[4] = Gluco-nagstatin, ref Terinek and Vasella, 2005
[5] = 13r (3) of previous research, ref Shen et al., 2018b
[6] = Dixon plots, 4-MU-GlcNAc 40, 20, 10 μM

In the case of CC(C)C(=O)N[C@H]1c2nc(CCc3ccccc3)cn2[C@H](CO)[C@@H](O)[C@@H]1O [GlcNAcstatin C], the Ki (hOGA; [2]) is listed as 4.4 nM and the Ki (HsHex; [2]) is listed as 550 nM.

For CC(=O)OC[C@H]1O[C@@H](SCC(=O)NCCCN2C(=O)c3cccc4c(N5CCCCC5)ccc(c34)C2=O)[C@@](O)(NC(=O)c2ccc(F)cc2)[C@@H](OC(C)=O)[C@@H]1OC(C)=O [Compound 1], the Ki (hOGA; [3]) is listed as 3800 nM and the Ki (HsHexB; [3]) is listed as 30.4 µM.

In the case of CC1=N[C@@H]2[C@@H](O)[C@H](O)[C@@H](CO)O[C@@H]2S1 [NGT, NAG-thiazoline], the Ki (HsHex; NGT, ref Knapp et al., 1996) is listed as 70 nM.

For CC(=O)N[C@H]1c2nc(CC(=O)O)cn2[C@H](CO)[C@@H](O)[C@@H]1O [Gluco-nagstatin], the Ki (hOGA; [4]) is given as 420 nM and the Ki (HsHex; [4]) is given as 10 nM.

For CC(=O)N[C@@H]1[C@@H](O)[C@H](O)[C@@H](CO)O[C@H]1SCCNCCCN1C(=O)c2cccc3c(N4CCCCC4)ccc(c23)C1=O [Compound 3], the Ki (hOGA; [5]) is given as 600 nM and the Ki (HsHexB; [5]) is given as over 100 µM.

For CC(=O)N[C@@H]1[C@@H](O)[C@H](O)[C@@H](CO)O[C@H]1SCC(=O)NCCCN1C(=O)c2cccc3cccc(c23)C1=O [Compound 2, reference compound], the Ki (hOGA; [3]) is listed as 3460 nM, the Ki (HsHexB; [3]) is listed as over 100 µM and the inhibition at 100 µM ([1]; 100 μM inhibitor, 40 μM 4-MU-GlcNAc, 30°C, 30 min, read-out: Inhibition rate at 100 μM (%) HsHexB) is listed as 45.5 ± 0.5%. The Ki [1, 6] was over 100 µM, the inhibition at 100 µM (human O-GlcNAcase (hOGA); 100 μM inhibitor, 40 μM 4-MU-GlcNAc, 30°C, 30 min, read-out: Inhibition rate at 100 μM (%) hOGA) was 97.6 ± 0.9% and the Ki (human O-GlcNAcase (hOGA); [6]) was 3.46 ± 0.11 µM.
